Measurements published in patent US12310970B2, “Compounds and methods for treating or preventing anterior segment ocular disorders and/or retinal degenerations” (YALE UNIVERSITY, priority 2018, dated 2025).
Where a name gives a salt, the structure may show the parent alone.

Assays:
[1] = test system: Human iPSC-derived RPE cells; experiment: Mitochondrial respiration (Seahorse XF) after TBHP in iPSC-derived RPE; assay type: cell-based
Human ARPE-19 cells = experiment: Expression of oxidative stress and apoptosis related genes after TBHP; assay type: cell-based; conditions: 0.9 μM 24 h preincubation, 300 μM TBHP 24 h
Procedure: FIG. 2 depicts the gene expression pattern of oxidative stress related genes after tert-butyl hydroperoxide-induced cell death. Human ARPE-19 cells were preincubated ciclopirox olamine (0.9 μM) for 24 hours and then exposed to 300 μM tert-butyl hydroperoxide (TBHP) for 24 hours. […] FIG. 3 depicts apoptotic gene expression patterns after oxidative stress-induced cell death in human retinal pigment epithelial (RPE) cells. Human ARPE-19 cells were preincubated with ciclopirox olamine for 24 hours and then exposed to 300 μM tert-butyl hydroperoxide (TBHP) for 24 hours. […] The expression levels of genes related to oxidative stress were identified after exposure to TBHP for 24 hours (FIG. 2).

[2] = test system: corneal endothelial cells; experiment: TBHP-induced cell death in corneal endothelial cells; assay type: cell-based, cow; conditions: corneal endothelial cells (FIG. 18); 0.9 μM 24 h, then 300 μM TBHP 24 h
Procedure: Immortalized cow corneal endothelial cells (CRL-2048) obtained from the American Type Culture Collection (ATCC, Manassas, VA, USA) were cultured in Dulbecco's modified Eagle's medium (DMEM; Thermo Fisher Scientific, Waltham, MA) containing 10% fetal bovine serum (FBS), 100 IU/mL penicillin, 100 μg/mL streptomycin, 100 μg/mL gentamicin, and 2.5 μg/mL amphotericin B (Thermo Fisher Scientific). Human ARPE-19 cells were plated in 96-well plates for 24 hours in DMEM supplemented with FBS and antibiotics. ARPE-19 cells were preincubated with either ciclopirox olamine (Sigma), compound 414 (Chemical Diversity, San Diego, CA), compound 434 (Chemical Diversity) or no compound for 24 hours and then exposed to varying concentrations of tert-butyl hydroperoxide (TBHP; Sigma-Aldrich, St. Louis, MO) the next day for 24 hours. Cell viability was measured the following day by […] cell viability assay (Promega, Madison, WI) using a BioTek FLX800TM fluorescence reader (BioTek Winooski, VT). […] Protective effect of 0.9 μMciclopirox olamine on lens epithelial cells exposed to 300 μMTBHP.

Cc1cc(C2CCCCC2)n(O)c(=O)c1 [ciclopirox olamine, 6-cyclohexyl-1-hydroxy-4-methyl-2(1H)-pyridone, ethanolamine salt, reference compound]
mitochondrial function, treatment alone ([1]; iPSC-derived RPE treated with ciclopirox olamine alone): improved | protection from oxidative stress-induced cell death ([1]; iPSC-derived RPE, TBHP 24 h): protects | expression of genes related to anti-oxidative stress (Human ARPE-19 cells): elevated | expression of genes related to oxidative stress (Human ARPE-19 cells): reduced | gene expression of Bax (Human ARPE-19 cells): reduced | gene expression of caspase 8 (Human ARPE-19 cells): reduced | cell viability after exposure to TBHP [2]: significantly increases cell viability
